biological target: Beta-3 adrenergic receptor (Homo sapiens, UniProt P13945); test: DRUGMATRIX: Adrenergic beta3 radioligand binding (ligand: [125I] Cyanopindolol); type: cell membranes, HEK293, Membrane; conditions: hek293; Not Active = under 50% inhibition at 10 µM
Sequence (P13945 whole entry): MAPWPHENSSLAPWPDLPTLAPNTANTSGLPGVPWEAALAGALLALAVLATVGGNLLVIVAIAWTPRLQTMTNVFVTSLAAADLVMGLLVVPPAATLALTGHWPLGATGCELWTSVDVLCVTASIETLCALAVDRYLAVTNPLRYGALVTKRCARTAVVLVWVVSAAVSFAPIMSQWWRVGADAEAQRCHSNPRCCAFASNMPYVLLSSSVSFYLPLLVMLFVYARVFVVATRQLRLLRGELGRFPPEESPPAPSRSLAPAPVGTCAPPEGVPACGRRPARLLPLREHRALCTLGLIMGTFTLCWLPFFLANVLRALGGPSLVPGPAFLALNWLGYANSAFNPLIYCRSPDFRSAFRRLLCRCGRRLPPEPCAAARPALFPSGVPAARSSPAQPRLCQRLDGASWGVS

Compound	IC50
Nc1cc(-c2ccncc2)c[nH]c1=O [INAMRINONE]	Not Active
CCCCC1=NC2(CCCC2)C(=O)N1Cc1ccc(-c2ccccc2-c2nnn[nH]2)cc1 [IRBESARTAN]	Not Active
CN1CCC(=C2c3ccccc3CC(=O)c3sccc32)CC1 [KETOTIFEN]	Not Active
N[C@@H](Cn1ccc(=O)c(O)c1)C(=O)O [L-MIMOSINE]	Not Active
C[N+](C)(C)C[C@H](O)CC(=O)[O-] [LEVOCARNITINE]	Not Active
C[C@H]1COc2c(N3CCN(C)CC3)c(F)cc3c(=O)c(C(=O)O)cn1c23.C[C@H]1COc2c(N3CCN(C)CC3)c(F)cc3c(=O)c(C(=O)O)cn1c23.O [LEVOFLOXACIN]	Not Active
CCn1cc(C(=O)O)c(=O)c2cc(F)c(N3CCNC(C)C3)c(F)c21 (configuration not stated) [LOMEFLOXACIN]	Not Active

biological target: 5-hydroxytryptamine receptor 6 (Homo sapiens, UniProt P50406); type: cell membranes, HeLa, Membrane; conditions: hela; note: in other assays of this panel Not Active means under 50% inhibition at 10 µM
Sequence (P50406 whole entry): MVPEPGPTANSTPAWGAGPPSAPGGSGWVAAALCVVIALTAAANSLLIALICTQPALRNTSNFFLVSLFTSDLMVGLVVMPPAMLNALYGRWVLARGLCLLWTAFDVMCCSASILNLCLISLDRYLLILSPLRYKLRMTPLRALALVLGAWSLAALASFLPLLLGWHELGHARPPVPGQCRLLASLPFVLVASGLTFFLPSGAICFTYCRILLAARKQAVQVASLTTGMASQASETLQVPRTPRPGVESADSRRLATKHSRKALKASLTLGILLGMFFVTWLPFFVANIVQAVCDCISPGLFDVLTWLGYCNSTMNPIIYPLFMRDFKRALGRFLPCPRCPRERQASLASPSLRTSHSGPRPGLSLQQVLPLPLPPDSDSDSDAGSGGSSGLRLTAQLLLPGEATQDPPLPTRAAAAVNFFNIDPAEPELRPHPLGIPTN

Compound	IC50
Nc1cc(-c2ccncc2)c[nH]c1=O [INAMRINONE]	Not Active
CCCCC1=NC2(CCCC2)C(=O)N1Cc1ccc(-c2ccccc2-c2nnn[nH]2)cc1 [IRBESARTAN]	Not Active
N[C@@H](Cn1ccc(=O)c(O)c1)C(=O)O [L-MIMOSINE]	Not Active
C[N+](C)(C)C[C@H](O)CC(=O)[O-] [LEVOCARNITINE]	Not Active
C[C@H]1COc2c(N3CCN(C)CC3)c(F)cc3c(=O)c(C(=O)O)cn1c23.C[C@H]1COc2c(N3CCN(C)CC3)c(F)cc3c(=O)c(C(=O)O)cn1c23.O [LEVOFLOXACIN]	Not Active
CCn1cc(C(=O)O)c(=O)c2cc(F)c(N3CCNC(C)C3)c(F)c21 (configuration not stated) [LOMEFLOXACIN]	Not Active

same assay, conditions: read-out: IC50

Compound	IC50 [nM]
CN1CCC(=C2c3ccccc3CC(=O)c3sccc32)CC1 [KETOTIFEN]	1140

same assay, conditions: read-out: Ki

Compound	Ki [nM]
CN1CCC(=C2c3ccccc3CC(=O)c3sccc32)CC1 [KETOTIFEN]	530

biological target: T1, Substance-K receptor (Homo sapiens, UniProt P21452); type: cell membranes, CHO, Membrane; conditions: cho; note: in other assays of this panel Not Active means under 50% inhibition at 10 µM
T1 sequence (P21452 whole entry): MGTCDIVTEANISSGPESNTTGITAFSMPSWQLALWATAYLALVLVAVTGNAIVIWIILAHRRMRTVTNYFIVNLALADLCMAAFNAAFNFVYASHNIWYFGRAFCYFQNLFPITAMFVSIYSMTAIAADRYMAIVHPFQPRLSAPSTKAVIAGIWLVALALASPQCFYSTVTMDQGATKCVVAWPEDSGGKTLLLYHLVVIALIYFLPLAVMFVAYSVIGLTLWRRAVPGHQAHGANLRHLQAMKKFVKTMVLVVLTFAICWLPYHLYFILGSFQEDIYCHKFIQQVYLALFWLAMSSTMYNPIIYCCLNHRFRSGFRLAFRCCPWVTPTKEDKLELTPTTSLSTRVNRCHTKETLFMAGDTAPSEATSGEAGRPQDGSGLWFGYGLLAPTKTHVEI

Compound	IC50
Nc1cc(-c2ccncc2)c[nH]c1=O [INAMRINONE]	Not Active
CCCCC1=NC2(CCCC2)C(=O)N1Cc1ccc(-c2ccccc2-c2nnn[nH]2)cc1 [IRBESARTAN]	Not Active
CN1CCC(=C2c3ccccc3CC(=O)c3sccc32)CC1 [KETOTIFEN]	Not Active
N[C@@H](Cn1ccc(=O)c(O)c1)C(=O)O [L-MIMOSINE]	Not Active
C[N+](C)(C)C[C@H](O)CC(=O)[O-] [LEVOCARNITINE]	Not Active
C[C@H]1COc2c(N3CCN(C)CC3)c(F)cc3c(=O)c(C(=O)O)cn1c23.C[C@H]1COc2c(N3CCN(C)CC3)c(F)cc3c(=O)c(C(=O)O)cn1c23.O [LEVOFLOXACIN]	Not Active
CCn1cc(C(=O)O)c(=O)c2cc(F)c(N3CCNC(C)C3)c(F)c21 (configuration not stated) [LOMEFLOXACIN]	Not Active

biological target: T2, D(4) dopamine receptor (Homo sapiens, UniProt P21917); test: DRUGMATRIX: Dopamine D4.2 radioligand binding (ligand: [3H] Spiperone); type: cell membranes, CHO-K1, Membrane; conditions: cho-k1; Not Active = under 50% inhibition at 10 µM
T2 sequence (P21917 whole entry): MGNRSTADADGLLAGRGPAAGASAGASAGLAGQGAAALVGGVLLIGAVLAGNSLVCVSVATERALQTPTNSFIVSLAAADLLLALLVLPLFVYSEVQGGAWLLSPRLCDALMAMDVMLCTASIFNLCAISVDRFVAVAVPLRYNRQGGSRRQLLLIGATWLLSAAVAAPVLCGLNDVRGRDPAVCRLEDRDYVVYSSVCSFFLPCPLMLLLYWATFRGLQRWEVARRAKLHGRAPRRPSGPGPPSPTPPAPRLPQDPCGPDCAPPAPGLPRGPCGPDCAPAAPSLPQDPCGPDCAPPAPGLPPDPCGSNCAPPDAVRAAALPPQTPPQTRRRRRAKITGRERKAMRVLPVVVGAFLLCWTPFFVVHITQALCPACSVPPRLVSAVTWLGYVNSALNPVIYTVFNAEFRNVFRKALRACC

Compound	IC50
Nc1cc(-c2ccncc2)c[nH]c1=O [INAMRINONE]	Not Active
CCCCC1=NC2(CCCC2)C(=O)N1Cc1ccc(-c2ccccc2-c2nnn[nH]2)cc1 [IRBESARTAN]	Not Active
CN1CCC(=C2c3ccccc3CC(=O)c3sccc32)CC1 [KETOTIFEN]	Not Active
N[C@@H](Cn1ccc(=O)c(O)c1)C(=O)O [L-MIMOSINE]	Not Active
C[N+](C)(C)C[C@H](O)CC(=O)[O-] [LEVOCARNITINE]	Not Active
C[C@H]1COc2c(N3CCN(C)CC3)c(F)cc3c(=O)c(C(=O)O)cn1c23.C[C@H]1COc2c(N3CCN(C)CC3)c(F)cc3c(=O)c(C(=O)O)cn1c23.O [LEVOFLOXACIN]	Not Active
CCn1cc(C(=O)O)c(=O)c2cc(F)c(N3CCNC(C)C3)c(F)c21 (configuration not stated) [LOMEFLOXACIN]	Not Active

system: not listed separately; test: DRUGMATRIX: Interleukin IL-1 radioligand binding (ligand: [125I] interleukin 1beta); type: cell membranes, Membrane; conditions: nih3t3; Not Active = under 50% inhibition at 10 µM

Compound	IC50	Ki
Nc1cc(-c2ccncc2)c[nH]c1=O [INAMRINONE]	Not Active	Not Active
CCCCC1=NC2(CCCC2)C(=O)N1Cc1ccc(-c2ccccc2-c2nnn[nH]2)cc1 [IRBESARTAN]	Not Active	Not Active
CN1CCC(=C2c3ccccc3CC(=O)c3sccc32)CC1 [KETOTIFEN]	Not Active	Not Active
N[C@@H](Cn1ccc(=O)c(O)c1)C(=O)O [L-MIMOSINE]	Not Active	Not Active
C[N+](C)(C)C[C@H](O)CC(=O)[O-] [LEVOCARNITINE]	Not Active	Not Active
C[C@H]1COc2c(N3CCN(C)CC3)c(F)cc3c(=O)c(C(=O)O)cn1c23.C[C@H]1COc2c(N3CCN(C)CC3)c(F)cc3c(=O)c(C(=O)O)cn1c23.O [LEVOFLOXACIN]	Not Active	Not Active
CCn1cc(C(=O)O)c(=O)c2cc(F)c(N3CCNC(C)C3)c(F)c21 (configuration not stated) [LOMEFLOXACIN]	Not Active	Not Active

system: not listed separately; test: DRUGMATRIX: Purinergic P2X radioligand binding (ligand: [3H] alpha, beta-Methylene-ATP); type: cell membranes, Oryctolagus cuniculus, New Zealand albino, Urinary bladder, Membrane; conditions: Not Active = under 50% inhibition at 10 µM

Compound	IC50	Ki
Nc1cc(-c2ccncc2)c[nH]c1=O [INAMRINONE]	Not Active	Not Active
CCCCC1=NC2(CCCC2)C(=O)N1Cc1ccc(-c2ccccc2-c2nnn[nH]2)cc1 [IRBESARTAN]	Not Active	Not Active
CN1CCC(=C2c3ccccc3CC(=O)c3sccc32)CC1 [KETOTIFEN]	Not Active	Not Active
N[C@@H](Cn1ccc(=O)c(O)c1)C(=O)O [L-MIMOSINE]	Not Active	Not Active
C[N+](C)(C)C[C@H](O)CC(=O)[O-] [LEVOCARNITINE]	Not Active	Not Active
C[C@H]1COc2c(N3CCN(C)CC3)c(F)cc3c(=O)c(C(=O)O)cn1c23.C[C@H]1COc2c(N3CCN(C)CC3)c(F)cc3c(=O)c(C(=O)O)cn1c23.O [LEVOFLOXACIN]	Not Active	Not Active
CCn1cc(C(=O)O)c(=O)c2cc(F)c(N3CCNC(C)C3)c(F)c21 (configuration not stated) [LOMEFLOXACIN]	Not Active	Not Active

Source: ChEMBL document CHEMBL1909046, “DrugMatrix in vitro pharmacology data”
